Measured values from the NIST ThermoML archive (doi:10.1016/j.fluid.2014.04.002).
± gives the expanded uncertainty stated by the source.

Test: xn = mol fraction of the nth substance listed
Details: 101 kPa, Liquid; for viscosity: Concentric cylinders viscometry; for mass density: Vibrating tube method

CCOC(=O)C(C)O (stereo not drawn) [DL-ethyl lactate] + C1CCOC1
Details	mass density [kg/m3]	viscosity [mPa·s]
288.15 K, x1 = 0.1002	913.682 ± 0.27	0.6267 ± 0.012
288.15 K, x1 = 0.2001	932.177 ± 0.31	0.7629 ± 0.014
288.15 K, x1 = 0.3001	949.134 ± 0.36	0.9181 ± 0.017
288.15 K, x1 = 0.4001	964.944 ± 0.41	1.095 ± 0.02
288.15 K, x1 = 0.4999	979.595 ± 0.47	1.313 ± 0.024
288.15 K, x1 = 0.5999	993.315 ± 0.54	1.58 ± 0.029
288.15 K, x1 = 0.6999	1006.15 ± 0.62	1.91 ± 0.036
288.15 K, x1 = 0.7999	1018.13 ± 0.71	2.309 ± 0.044
288.15 K, x1 = 0.8997	1029.17 ± 0.81	2.754 ± 0.053
288.15 K, x1 = 1	1039.28 ± 0.92	3.207 ± 0.062
293.15 K, x1 = 0.1002	908.275 ± 0.27	0.5901 ± 0.011
293.15 K, x1 = 0.2001	926.796 ± 0.31	0.7128 ± 0.013
293.15 K, x1 = 0.3001	943.748 ± 0.35	0.8562 ± 0.016
293.15 K, x1 = 0.4001	959.567 ± 0.41	1.013 ± 0.019
293.15 K, x1 = 0.4999	974.209 ± 0.47	1.2 ± 0.022
293.15 K, x1 = 0.5999	987.924 ± 0.54	1.426 ± 0.027
293.15 K, x1 = 0.6999	1000.76 ± 0.61	1.701 ± 0.032
293.15 K, x1 = 0.7999	1012.74 ± 0.7	2.028 ± 0.038
293.15 K, x1 = 0.8997	1023.77 ± 0.8	2.389 ± 0.046
293.15 K, x1 = 1	1033.84 ± 0.91	2.75 ± 0.053
298.15 K, x1 = 0.1002	902.835 ± 0.27	0.5622 ± 0.011
298.15 K, x1 = 0.2001	921.368 ± 0.31	0.6721 ± 0.013
298.15 K, x1 = 0.3001	938.334 ± 0.35	0.8003 ± 0.015
298.15 K, x1 = 0.4001	954.154 ± 0.41	0.9386 ± 0.018
298.15 K, x1 = 0.4999	968.8 ± 0.47	1.103 ± 0.021
298.15 K, x1 = 0.5999	982.515 ± 0.53	1.297 ± 0.024
298.15 K, x1 = 0.6999	995.342 ± 0.61	1.527 ± 0.029
298.15 K, x1 = 0.7999	1007.32 ± 0.69	1.799 ± 0.034
298.15 K, x1 = 0.8997	1018.34 ± 0.79	2.096 ± 0.04
298.15 K, x1 = 1	1028.39 ± 0.9	2.39 ± 0.046
303.15 K, x1 = 0.1002	897.364 ± 0.27	0.5357 ± 0.01
303.15 K, x1 = 0.2001	915.916 ± 0.31	0.6349 ± 0.012
303.15 K, x1 = 0.3001	932.893 ± 0.35	0.7493 ± 0.014
303.15 K, x1 = 0.4001	948.718 ± 0.4	0.8721 ± 0.016
303.15 K, x1 = 0.4999	963.363 ± 0.46	1.016 ± 0.019
303.15 K, x1 = 0.5999	977.073 ± 0.53	1.183 ± 0.022
303.15 K, x1 = 0.6999	989.9 ± 0.6	1.38 ± 0.026
303.15 K, x1 = 0.7999	1001.88 ± 0.69	1.607 ± 0.031
303.15 K, x1 = 0.8997	1012.89 ± 0.78	1.854 ± 0.036
303.15 K, x1 = 1	1022.92 ± 0.88	2.097 ± 0.041
308.15 K, x1 = 0.1002	891.857 ± 0.27	0.5111 ± 0.01
308.15 K, x1 = 0.2001	910.441 ± 0.31	0.6006 ± 0.012
308.15 K, x1 = 0.3001	927.416 ± 0.35	0.7023 ± 0.013
308.15 K, x1 = 0.4001	943.254 ± 0.4	0.8122 ± 0.015
308.15 K, x1 = 0.4999	957.89 ± 0.46	0.9381 ± 0.018
308.15 K, x1 = 0.5999	971.596 ± 0.53	1.084 ± 0.021
308.15 K, x1 = 0.6999	984.431 ± 0.6	1.255 ± 0.024
308.15 K, x1 = 0.7999	996.411 ± 0.68	1.449 ± 0.028
308.15 K, x1 = 0.8997	1007.43 ± 0.77	1.657 ± 0.032
308.15 K, x1 = 1	1017.42 ± 0.87	1.858 ± 0.036
313.15 K, x1 = 0.1002	886.313 ± 0.27	0.4852 ± 0.0096
313.15 K, x1 = 0.2001	904.918 ± 0.3	0.5661 ± 0.011
313.15 K, x1 = 0.3001	921.903 ± 0.35	0.659 ± 0.013
313.15 K, x1 = 0.4001	937.749 ± 0.4	0.7575 ± 0.014
313.15 K, x1 = 0.4999	952.388 ± 0.46	0.8692 ± 0.017
313.15 K, x1 = 0.5999	966.093 ± 0.52	0.9979 ± 0.019
313.15 K, x1 = 0.6999	978.93 ± 0.59	1.146 ± 0.022
313.15 K, x1 = 0.7999	990.912 ± 0.67	1.313 ± 0.025
313.15 K, x1 = 0.8997	1001.93 ± 0.76	1.489 ± 0.029
313.15 K, x1 = 1	1011.9 ± 0.86	1.658 ± 0.032
318.15 K, x1 = 0.1002	880.728 ± 0.27	0.4556 ± 0.0091
318.15 K, x1 = 0.2001	899.348 ± 0.3	0.5305 ± 0.01
318.15 K, x1 = 0.3001	916.356 ± 0.35	0.6187 ± 0.012
318.15 K, x1 = 0.4001	932.209 ± 0.4	0.7066 ± 0.014
318.15 K, x1 = 0.4999	946.847 ± 0.46	0.8068 ± 0.015
318.15 K, x1 = 0.5999	960.559 ± 0.52	0.92 ± 0.018
318.15 K, x1 = 0.6999	973.398 ± 0.59	1.052 ± 0.02
318.15 K, x1 = 0.7999	985.384 ± 0.67	1.196 ± 0.023
318.15 K, x1 = 0.8997	996.4 ± 0.75	1.348 ± 0.026
318.15 K, x1 = 1	1006.36 ± 0.85	1.491 ± 0.029
323.15 K, x1 = 0.1002	875.1 ± 0.27	0.4242 ± 0.0086
323.15 K, x1 = 0.2001	893.744 ± 0.3	0.5003 ± 0.0099
323.15 K, x1 = 0.3001	910.77 ± 0.35	0.5839 ± 0.011
323.15 K, x1 = 0.4001	926.634 ± 0.4	0.6648 ± 0.013
323.15 K, x1 = 0.4999	941.277 ± 0.45	0.755 ± 0.015
323.15 K, x1 = 0.5999	954.994 ± 0.52	0.8565 ± 0.016
323.15 K, x1 = 0.6999	967.835 ± 0.59	0.9727 ± 0.019
323.15 K, x1 = 0.7999	979.827 ± 0.66	1.103 ± 0.021
323.15 K, x1 = 0.8997	990.842 ± 0.75	1.235 ± 0.024
323.15 K, x1 = 1	1000.79 ± 0.84	1.349 ± 0.026
